Measured values: patent publication US5219884A, “Immunosuppressant” (Taito Co., Ltd., priority 1990, dated 1993)
Read-outs that look alike come from different tables or passages of the source.

Legend:
[1] = system: mouse allogenic mixed lymphocyte reaction (BALB/c responder, C57BL/6 stimulator spleen cells); assay: mouse allogenic mixed lymphocyte reaction (MLR), blastogenesis by 3H-thymidine uptake; format: cell-based
Procedure: The immunosuppressive activity of the compounds (I) and their lactones was assayed by using mouse allogenic mixed lymphocyte reaction (hereinafter sometimes abbreviated as MLR). Mouse allogenic MLR was carried out by mixed culture of the BALB/c mouse (H-2^d) spleen cells as the responder cells and the mitomycin C-treated C57BL/6 (H-2^b) spleen cells as the stimulator cells in equal amounts.
The responder cells were prepared as follows: The spleen was resected from 5- to 6-week-old male BALB/c mice, and single cell suspension of spleen cells was prepared by using the RPMI1640 culture medium (containing 60 μg/ml of kanamycin sulfate, 2 mM of L-glutamine, 10 mM of N-2-hydroxyethylpiperazine-N'-2-ethanesulfonate (HEPES) and 0.1% sodium hydrogencarbonate) to which heat-inactivated fetal calf serum (hereinaftersometimes abbreviated as FCS) had been added to 5%. After hemolytic treatment, the cell suspension was adjusted to a concentration of 10^7 cells/ml by using the RPMI1640 culture medium supplemented with 10^-4 M 2-mercaptoethanol and 20% FCS, and was used as the responder cell suspension.
The stimulator cells were prepared as follows:
The spleen was resected from 5- to 6-week-old male C57BL/6 mice, and single cell suspension of spleen cells was prepared by using the RPMI1640 culture medium. After hemolytic treatment, the cells were treated with 40 μg/ml of mitomycin C at 37° C. for 60 minutes. After washing three times, the concentration of the cell suspension was adjusted to 10^7 cells/ ml by using the RPMI1640 culture medium supplemented with 10^-4 M 2-mercaptoethanol and 20% FCS, and was used as the stimulator cell suspension.
Fifty μl of the responder cell suspension, 50μl of the stimulator cell suspension prepared by the above method, and 100 μl of the test substance were placed in 96-well microculture plates, and were cultured at 37° C. in an atmosphere of 5% carbon dioxide for 4 days.
The blastogenesis of lymphocytes was assayed by a method of ^3 H-thymidine uptake as an index. That is, after termination of the culture, 0.5 μCi/well of ^3 H-thymidine was added and cultured for 4 hours. Cells were harvested by a cell-harvester, and the radioactivity incorporated into the cells was determined by a liquid scintillation counter to obtain the index of blastogenesis of lymphocytes in the mouse allogenic MLR. The suppression of the mouse allogenic MLR was evaluated by calculating the percent suppression by the following formula. [formula]
The test substance was dissolved in methanol or suspended in a mixture of methanol and acetic acid, and then diluted with the RPMI1640 culture medium.

[2] = cytotoxicity to mouse L929 cells; format: cell-based; conditions: mouse, l929 cells, read-out: Suppression
Procedure: (§1) Cytotoxicity to mouse L929 cells was assayed as follows:
(§2) L929 cells were suspended to the concentration of 1.5×10^5 cells/ml in the F12 culture medium supplemented with 10% FCS. One hundred μl of the suspension was added to each well of 96-well microculture plates, and cultured at 37° C. in an atmosphere of 5% carbon dioxide for 24 hours, to which 100 μl of the test solution was added and cultured for further 48 hours. After the culture, 100 μl of the supernatant was removed and the absorbancy at 550 nm was measured in the same way as the colormetry using MTT in Experimental Example 1. The percent suppression was calculated by the following formula used as the index of cytotoxicity. [formula]

mouse L929 cells = assay: cytotoxicity to mouse L929 cells; format: cell-based; conditions: 550 nm
Procedure: as §1, §2

in vitro = format: cell-based, human; conditions: human, read-out: Suppression
Procedure: (§3) Cytotoxicity to human tumor cell lines was examined as follows:
(§4) Cells of human cell lines, K562, MOLT4, U937, HL60, KATOIII, KB, PC-6, PC-14 and CCRF-CEM were separately suspended to the concentration of 2×10^5 cells/ml in the RPMI1640 culture medium supplemented with 20% FCS. Fifty μl of this suspension was added to each well of 96-well microculture plates to which 50 μl of the test solution had been added. After culturing at 37° C. in an atmosphere of 5% carbon dioxide for 72 hours, the absorbancy at 550 nm was measured in the same way as the colorimetry using MTT in Experimental Example 1, and the percent suppression was calculated in the same manner as in Experimental Example 14, which was used as the index of cytotoxicity.

CCRF-CEM = assay: in vitro; format: cell-based, human
Procedure: as §3, §4

HL60 = assay: in vitro; format: cell-based, human
Procedure: as §3, §4

K562 = assay: in vitro; format: cell-based, human
Procedure: as §3, §4

KB = assay: in vitro; format: cell-based, human
Procedure: as §3, §4

PC-14 = assay: in vitro; format: cell-based, human
Procedure: as §3, §4

U937 = assay: in vitro; format: cell-based, human
Procedure: as §3, §4

[3] = cytotoxicity to tumor cell line MOLT4; format: cell-based, human; conditions: human, molt4 cells, read-out: Suppression
Procedure: as §3, §4

MOLT4 = assay: cytotoxicity to tumor cell line MOLT4; format: cell-based, human
Procedure: as §3, §4

CCCCCCC(O)CCCCCC/C=C/CC1OC(=O)C(N)(CO)C1O (stereo not drawn) [Example 8]
3H-thymidine uptake ([1]; 0.001 μg/ml): 22815 cpm | 3H-thymidine uptake ([1]; 0.01 μg/ml): 3081 cpm | 3H-thymidine uptake ([1]; 0.1 μg/ml): 1586 cpm | inhibition at 0.001 µg/mL ([1]; Mus musculus, Lymphocyte, 0.001 μg/ml, read-out: Suppression): 21.1% | inhibition at 0.01 µg/mL ([1]; Mus musculus, Lymphocyte, 0.01 μg/ml, read-out: Suppression): 100% | inhibition at 0.1 µg/mL ([1]; Mus musculus, Lymphocyte, 0.1 μg/ml, read-out: Suppression): 100% | cytotoxicity at 48 h ([2]; 1 μg/ml): 0% | cytotoxicity at 48 h ([2]; 10 μg/ml): 0% | cytotoxicity at 48 h ([2]; 100 μg/ml): 96% | Absorbancy (mouse L929 cells; 1 μg/ml): 0.817 | Absorbancy (mouse L929 cells; 10 μg/ml): 0.738 | Absorbancy (mouse L929 cells; 100 μg/ml): 0.023 | cytotoxicity at 72 h (in vitro; ccrf-cem cells, 0.1 μg/ml): 0% | cytotoxicity at 72 h (in vitro; ccrf-cem cells, 1.0 μg/ml): 0% | cytotoxicity at 72 h (in vitro; ccrf-cem cells, 10.0 μg/ml): 3.9% | cytotoxicity at 72 h (in vitro; hl60 cells, 0.1 μg/ml): 16.9% | cytotoxicity at 72 h (in vitro; hl60 cells, 1.0 μg/ml): 14.8% | cytotoxicity at 72 h (in vitro; hl60 cells, 10.0 μg/ml): 19.9% | cytotoxicity at 72 h (in vitro; k562 cells, 0.1 μg/ml): 15.1% | cytotoxicity at 72 h (in vitro; k562 cells, 1.0 μg/ml): 16.6% | cytotoxicity at 72 h (in vitro; k562 cells, 10.0 μg/ml): 22.6% | cytotoxicity at 72 h (in vitro; kb cells, 0.1 μg/ml): 0% | cytotoxicity at 72 h (in vitro; kb cells, 1.0 μg/ml): 0% | cytotoxicity at 72 h (in vitro; kb cells, 10.0 μg/ml): 3.3% | cytotoxicity at 72 h (in vitro; pc-14 cells, 0.1 μg/ml): 4.6% | cytotoxicity at 72 h (in vitro; pc-14 cells, 1.0 μg/ml): 10.3% | cytotoxicity at 72 h (in vitro; pc-14 cells, 10.0 μg/ml): 31.2% | cytotoxicity at 72 h (in vitro; u937 cells, 0.1 μg/ml): 0% | cytotoxicity at 72 h (in vitro; u937 cells, 1.0 μg/ml): 0.5% | cytotoxicity at 72 h (in vitro; u937 cells, 10.0 μg/ml): 12% | Absorbancy (CCRF-CEM; 0.1 μg/ml): 0.720 | Absorbancy (CCRF-CEM; 1.0 μg/ml): 0.694 | Absorbancy (CCRF-CEM; 10.0 μg/ml): 0.665 | Absorbancy (HL60; 0.1 μg/ml): 0.434 | Absorbancy (HL60; 1.0 μg/ml): 0.445 | Absorbancy (HL60; 10.0 μg/ml): 0.418 | Absorbancy (K562; 0.1 μg/ml): 0.327 | Absorbancy (K562; 1.0 μg/ml): 0.321 | Absorbancy (K562; 10.0 μg/ml): 0.298 | Absorbancy (KB; 0.1 μg/ml): 0.741 | Absorbancy (KB; 1.0 μg/ml): 0.749 | Absorbancy (KB; 10.0 μg/ml): 0.706 | Absorbancy (PC-14; 0.1 μg/ml): 0.452 | Absorbancy (PC-14; 1.0 μg/ml): 0.425 | Absorbancy (PC-14; 10.0 μg/ml): 0.326 | Absorbancy (U937; 0.1 μg/ml): 0.590 | Absorbancy (U937; 1.0 μg/ml): 0.580 | Absorbancy (U937; 10.0 μg/ml): 0.513 | cytotoxicity at 72 h ([3]; 0.1 μg/ml): 2.1% | cytotoxicity at 72 h ([3]; 1.0 μg/ml): 5.5% | cytotoxicity at 72 h ([3]; 10.0 μg/ml): 8.3% | Absorbancy (MOLT4; 0.1 μg/ml): 0.142 | Absorbancy (MOLT4; 1.0 μg/ml): 0.137 | Absorbancy (MOLT4; 10.0 μg/ml): 0.133
